Here are results for 22 molecules from patent US20250188078A1, “SMALL MOLECULE INHIBITORS OF THE CRL4 UBIQUITIN LIGASE” (Cornell University, priority 2022, published 2025).

In general, IC50 refers to the concentration that inhibits the measured activity by half. Broadly, the EC50 is the midpoint of the concentration-response curve.

Assay [1] deals with CUL4A-DDB1-BPB interaction (Homo sapiens (Human), UniProt Q16531). The assay can be described thus: AlphaLISA in vitro binding assay, CUL4A and DDB1-BPB binding. Conditions: inhibition of CUL4A and DDB1-BPB binding. From the text:
AlphaLISA IC50 (see Table 1, column 4) means the half maximal inhibitory concentration of compound that inhibits CUL4A and DDB1-BPB binding. Our lab established and optimized 384 well-based AlphaLISA in vitro binding assay for testing small molecule inhibitory activity. Small molecule libraries were screened for compounds that disrupt CUL4A-DDB1-BPB interaction using AlphaScreen detection beads (PerkinElmer, #AL112C and #6765300) following the manufacturer's protocol (https://www.perkinelmer.com/PDFs/downloads/GDE-Alphatech.pdf, hereby incorporated by reference in its entirety for all purposes). The 384-well assay plates (Greiner Bio-one, #781075) were read in Synergy Neo2 Hybrid Multi-Mode Reader (BioTek). The IC50 was calculated by Prism 8 XY analysis nonlinear regression (curve fit-Log(inhibitor) vs response).

Assay [2] deals with CUL4A^high MDA-MB-468 breast cancer cells. Kind of assay: Cell killing in CUL4-high MDA-MB-468 cells (CellTiter Glo). In kind it is cell-based. Conditions: Homo sapiens, 192 h; MDA-MB-468 cells, 8 days treatment; read-out: EC50 CUL4-High Cells (cell killing). As for the experimental part: EC50 refers to concentration of compound that induces 50% killing of CUL4A^high MDA-MB-468 cells (see Table 1, column 6). CUL4A^high MDA-MB-468 breast cancer cells were seeded in 96 well plates. After 24 hours, cells were treated with DMSO or compounds. Change fresh medium and compounds. After 8 days treatment, cell viability was examined by using CellTiter Glo kit (Promega #7570) following the manufacturer's guidelines (https://www.promega.com/-/media/files/resources/protocols/technicalbulletins/0/celltiter-glo-luminescent-cell-viability-assay protocol.pdf?rev=0d95c232094b41daa06d0c110d1d916f&sc_lang=en, hereby incorporated by reference in its entirety for all purposes). EC50 concentration was calculated by Prism 8 XY analysis nonlinear regression (curve fit-Log(inhibitor) vs response). Lower EC50 indicates high cell killing potential in CUL4^high MDA-MB-468 cells.
CUL4A^high MDA-MB-468, CUL4^low (T47D), and MCF7 breast cancer cells were seeded in 96 well plates separately. Cells were treated with DMSO, or from 0 to 20 μM compound respectively. Replace with fresh medium and compounds every 48 hours. After 8 days treatment, cell viability was examined by CellTiter Glo kit (Promega #7570). First, transfer the appropriate volume (10 ml for Cat. #G7570) of CellTiter-Glo® Buffer into the amber bottle containing CellTiter-Glo® Substrate to reconstitute the lyophilized enzyme/substrate mixture. This forms the CellTiter-Glo® Reagent. Second, add CellTiter-Glo® Reagent in an equal volume (100 μl per well for 96-well plates) to all wells. Mix contents for 2 minutes on an orbital shaker to induce cell lysis. Incubate at room temperature for 15 minutes to stabilize luminescent signal. Then record luminescence. EC50 concentration was calculated by Prism 8 XY analysis nonlinear regression (curve fit-Log(inhibitor) vs response).
In general terms: ATP-based viability assays read luminescence as a measure of living cells.

Assay [3] concerns UV-induced CUL4-dependent DDB2 degradation in MEF-F-DDB2 cells. The assay can be described thus: Cell-based assay for inhibition of UV-induced CUL4-dependent DDB2 degradation. Set-up: key: (+) means that the normalized DDB2/α-tubulin ratio is higher in the compound treated sample than DMSO treated sample; (−) means that no change happens between compound treated sample with control sample. The following applies: DDB2/α-tubulin by Western blot. As for the experimental part:
Cell-based assay for inhibition of UV-induced CUL4-dependent DDB2 degradation by small molecule CUL4 inhibitors (see Table 1, column 5). Briefly, MEF-F-DDB2 cells were seeded in 6-well plates. DMSO or indicated concentrations of compounds were added to MEF-F-DDB2 cells growing in serum-free medium. MEF-F-DDB2 cells were washed once with PBS and subsequently irradiated with a Philips TUV lamp (predominantly 254 nm) at a dose rate of 0.2 W/m^2. DMSO or compounds were added to MEF-F-DDB2 cells, and then cells were harvested. The cells were lysed, and equal amounts of proteins were resolved on SDS-PAGE gel and Flag-DDB2 levels were detected using anti-DDB2 (D4C4) rabbit antibody (Cell signaling, #5416S). α-tubulin (Proteintech, #66031-1-Ig) was used as an internal loading control. (+) means that the normalized DDB2/α-tubulin ratio is higher in the compound treated sample than DMSO treated sample. (−) means that no change happens between compound treated sample with control sample.
A general note: In western blotting, separated proteins are transferred to a membrane and probed.

Chain of CUL4A-DDB1-BPB interaction (Q16531 403-706): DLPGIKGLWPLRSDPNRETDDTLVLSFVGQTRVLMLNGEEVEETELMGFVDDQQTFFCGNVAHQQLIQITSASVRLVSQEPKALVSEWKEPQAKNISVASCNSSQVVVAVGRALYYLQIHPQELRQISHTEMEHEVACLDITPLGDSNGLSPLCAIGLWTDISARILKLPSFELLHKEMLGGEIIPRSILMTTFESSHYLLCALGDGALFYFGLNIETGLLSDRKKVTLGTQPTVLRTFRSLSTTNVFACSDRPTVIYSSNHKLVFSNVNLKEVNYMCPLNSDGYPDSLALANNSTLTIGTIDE

Take `Cc1cc(F)cc2[nH]c3c(-c4ccc(N(C)S(=O)(=O)c5ccccc5)cc4)nc(C(=O)O)cc3c12` [PA1-14, 7-fluoro-5-methyl-1-(4-(N-methylphenylsulfonamido)phenyl)-9H-pyrido[3,4-b]indole-3-carboxylic acid]: in assay [1], the 50% inhibitory concentration (IC50) worked out at 0.139 µM. Further, the EC50 in assay [2] is 7.36 µM.
`O=C(O)c1cc2c([nH]c3cc(F)ccc32)c(-c2ccc(OCc3ccsc3)cc2)n1` [PA1-11I, 7-fluoro-1-(4-(thiophen-3-ylmethoxy)phenyl)-9H-pyrido[3,4-b]indole-3-carboxylic acid]: the “Degradation Inhibition (inhibition of UV-induced DDB2 degradation)” value (“Degradation Inhibition” below) in assay [3] was “−”. The EC50 in assay [2] worked out at 14 µM.
As to `O=C(O)c1cc2c([nH]c3cc(F)ccc32)c(-c2ccc(OCc3ccoc3)cc2)n1` [PA1-11J, 7-fluoro-1-(4-(furan-3-ylmethoxy)phenyl)-9H-pyrido[3,4-b]indole-3-carboxylic acid], in assay [3], the “Degradation Inhibition” value is given as “−”.
On to `O=C(O)c1cc2c([nH]c3cc(F)ccc32)c(-c2ccc(OCC3CCCCC3)cc2)n1` [PA1-11D, 1-(4-(cyclohexylmethoxy)phenyl)-7-fluoro-9H-pyrido[3,4-b]indole-3-carboxylic acid], for which, in assay [3], the “Degradation Inhibition” value is “−”. Besides, the concentration giving a half-maximal response (EC50) in assay [2] was 9.51 µM.
The like results for `O=C(O)c1cc2c([nH]c3cc(F)ccc32)c(-c2ccc(OCc3cscn3)cc2)n1` [PA1-11K, 7-fluoro-1-(4-(thiazol-4-ylmethoxy)phenyl)-9H-pyrido[3,4-b]indole-3-carboxylic acid] were, in that order, “−” and more than 20 µM.
The corresponding values for `O=C(O)c1cc2c([nH]c3cc(F)ccc32)c(-c2ccc(OCc3cccnc3)cc2)n1` [PA1-11G, 7-fluoro-1-(4-(pyridin-3-ylmethoxy)phenyl)-9H-pyrido[3,4-b]indole-3-carboxylic acid] are “−” and more than 20 µM.
For `O=C(O)c1cc2c([nH]c3cc(F)ccc32)c(-c2ccc(OCC3CCOCC3)cc2)n1` [PA1-11E, 7-fluoro-1-(4-((tetrahydro-2H-pyran-4-yl)methoxy)phenyl)-9H-pyrido[3,4-b]indole-3-carboxylic acid], in assay [3], the “Degradation Inhibition” value is listed as “−”. Besides, in assay [2], the EC50 was more than 20 µM.
With `COC(=O)c1cccc(-c2nc(C(=O)O)cc3c2[nH]c2ccccc23)c1` [PA24, 1-(3-methoxycarbonylphenyl)-9HPage pyrido[3,4-b]indole-3-carboxylic acid], the “Degradation Inhibition” value in assay [3] is recorded as “+”. In addition, the IC50 in assay [1] was found to be 12 µM.
Regarding `O=C(O)c1cc2c([nH]c3cc(F)ccc32)c(-c2ccc(OCCc3ccccc3)cc2)n1` [PA1-11B, 7-fluoro-1-(4-phenethoxyphenyl)-9H-pyrido[3,4-b]indole-3-carboxylic acid], the “Degradation Inhibition” value in assay [3] is reported as “−”. In addition, in assay [2], the EC50 turned out to be 15.2 µM.
For the molecule `CN1CCN(c2ccc(S(=O)(=O)N(C)c3ccc(-c4nc(C(=O)O)cc5c4[nH]c4cc(F)ccc45)cc3)cc2)CC1` [PA1-13A-7, 7-fluoro-1-(4-((N-methyl-4-(4-methylpiperazin-1-yl)phenyl)sulfonamido)phenyl)-9H-pyrido[3,4-b]indole-3-carboxylic acid], the “Degradation Inhibition” value in assay [3] is recorded as “−”. Moreover, the IC50 in assay [1] came out at 0.38 µM. Moreover, the 50% effective concentration (EC50) in assay [2] came out at 14.5 µM.
As for `COC(=O)c1cc2c([nH]c3cc(F)ccc32)c(-c2ccc(N(C)S(=O)(=O)c3ccc(C#N)cc3)cc2)n1` [PA1-13A-2 ESTER], the “Degradation Inhibition” value in assay [3] is reported as “+”. Besides, the “AlphaLisa IC50” value in assay [1] was “Neg”. For the same molecule, the EC50 in assay [2] was more than 20 µM.
For the molecule `Cc1cc(N(C)S(=O)(=O)c2ccccc2)ccc1-c1nc(C(=O)O)cc2c1[nH]c1cc(F)ccc12` [PA1-12A, 7-fluoro-1-(2-methyl-4-(N-methylphenylsulfonamido)phenyl)-9H-pyrido[3,4-b]indole-3-carboxylic acid], the “Degradation Inhibition” value in assay [3] is recorded as “−”. Also, the concentration for half-maximal inhibition (IC50) in assay [1] was 2.4 µM. In addition, the 50% effective concentration (EC50) in assay [2] was found to be 9.84 µM.
Consider `COc1ccc(-c2ccc(-c3nc(C(=O)O)cc4c3[nH]c3ccccc34)cc2)cc1` [PA60], for which the “Degradation Inhibition” value in assay [3] was “−”. The IC50 in assay [1] turned out to be 17.5 ± 6.39 µM.
The like results for `O=C(O)c1cc2c([nH]c3ccccc32)c(-c2cccnc2)n1` [PA25] were, in that order, “+” and 2.52 ± 0.54 µM.
In the case of `O=C(O)c1cc2c([nH]c3cc(F)ccc32)c(-c2ccc(OCc3ccncn3)cc2)n1` [PA1-11L, 7-fluoro-1-(4-(pyrimidin-4-ylmethoxy)phenyl)-9H-pyrido[3,4-b]indole-3-carboxylic acid], the “Degradation Inhibition” value in assay [3] is “−”.
The same measure, in the same setting: then `O=C(O)c1cc2c([nH]c3cc(F)ccc32)c(-c2ccc(OCn3cncn3)cc2)n1` [PA1-11M, 1-(4-((1H-1,2,4-triazol-1-yl)methoxy)phenyl)-7-fluoro-9H-pyrido[3,4-b]indole-3-carboxylic acid], with “−”.
Regarding `O=C(O)c1cc2c([nH]c3cc(F)ccc32)c(-c2ccc(OCc3ccncc3)cc2)n1` [PA1-11F, 7-fluoro-1-(4-(pyridin-4-ylmethoxy)phenyl)-9H-pyrido[3,4-b]indole-3-carboxylic acid], the “Degradation Inhibition” value in assay [3] is given as “−”. Besides, the 50% effective concentration (EC50) in assay [2] is more than 20 µM.
As to `O=C(O)c1cc2c([nH]c3cc(F)ccc32)c(-c2ccc(OCCCc3ccccc3)cc2)n1` [PA1-11C, 7-fluoro-1-(4-(3-phenylpropoxy)phenyl)-9H-pyrido[3,4-b]indole-3-carboxylic acid], in assay [3], the “Degradation Inhibition” value was “−”. The EC50 in assay [2] came to 7.31 µM.
Consider `CN(c1ccc(-c2nc(C(=O)O)cc3c2[nH]c2cc(Cl)ccc23)cc1)S(=O)(=O)c1ccccc1` [PA1-6, 1-[4-[benzenesulfonyl(methyl)amino]phenyl]-7-chloro-9H-pyrido[3,4-b]indole-3-carboxylic acid], for which the half-maximal inhibitory concentration (IC50) in assay [1] turned out to be 1.13 µM. In assay [2], the EC50 came to 7.89 µM.
The corresponding values for `CN(c1ccc(-c2nc(C(=O)O)cc3c2[nH]c2cc(F)cc(F)c23)cc1)S(=O)(=O)c1ccccc1` [PA1-5, 5,7-difluoro-1-(4-(N-methylphenylsulfonamido)phenyl)-9H-pyrido[3,4-b]indole-3-carboxylic acid] are 0.22 µM and 10.7 µM.
Turning to `CN(c1ccc(-c2nc(C(=O)O)cc3c2[nH]c2cc(F)ccc23)cc1)S(=O)(=O)c1ccc(C#N)cc1` [PA1-13A-2, 1-(4-((4-cyano-N-methylphenyl)sulfonamido)phenyl)-7-fluoro-9H-pyrido[3,4-b]indole-3-carboxylic acid], the “Degradation Inhibition” value in assay [3] is “−”. Also, the IC50 in assay [1] was 2.51 µM. The EC50 in assay [2] amounted to 3.54 µM.
Regarding `O=C(O)c1cc2c([nH]c3cc(F)ccc32)c(-c2ccc(Oc3ccccc3)cc2)n1` [PA1-11A, 7-fluoro-1-(4-phenoxyphenyl)-9H-pyrido[3,4-b]indole-3-carboxylic acid], in assay [3], the “Degradation Inhibition” value is “−”. In addition, the concentration giving a half-maximal response (EC50) in assay [2] is 15.7 µM.
